Experimental data reported in patent publication US20190362816A1, “Systems and Methods for Developing Covalent Inhibitor Libraries for Screening Using Virtual Docking and Experimental Approaches” (Northwestern University, priority 2016, published 2019).

Key:
cysteine protease papain [1] = biological target: T1, cysteine protease papain (Carica papaya, UniProt P00784); conditions: J Med Chem. 2014, 57(11), 4969-74; cited from earlier work
T1 sequence (P00784 134-345): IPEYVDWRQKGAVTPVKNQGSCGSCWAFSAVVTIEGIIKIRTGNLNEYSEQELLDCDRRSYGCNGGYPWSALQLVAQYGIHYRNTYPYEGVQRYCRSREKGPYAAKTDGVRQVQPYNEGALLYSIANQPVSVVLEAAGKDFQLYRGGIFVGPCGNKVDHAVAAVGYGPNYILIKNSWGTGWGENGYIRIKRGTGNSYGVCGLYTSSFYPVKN

cysteine protease papain [2] = biological target: T1, cysteine protease papain; assay: enzyme assay against cysteine protease papain (kinact/Ki); format: biochemical; conditions: covalent fragments of this work; J Med Chem. 2014, 57(11), 4969-74; read-out: Inhibitors of papain in this work, kinact/Ki
Source text: In a further embodiment, once the potential covalent inhibitor candidate libraries have been prepared, these candidates can be evaluated by dosing them in a specific assay at a specific concentration versus the receptor to determine the potency of each of the candidates. Depending on the covalent inhibitor, the receptor, and the therapeutic area, the assays will vary. Methods of performing wet chemistry assays are well known. Examples of covalent fragments evaluated in the enzyme assays against cysteine protease papain is shown below (J Med Chem. 2014 Jun. 12; 57(11):4969-74): […]

[3] = biological target: Cathepsin B cysteine protease (Homo sapiens, UniProt P07858); assay: inhibition of related Cathepsin B cysteine protease; format: biochemical; conditions: selectivity versus cathepsin L
[4] = biological target: cysteine protease cathepsin L (Homo sapiens, UniProt P07711); assay: cathepsin L assay using commercially available fluorescent substrates; format: biochemical
Source text: Experimental validation of identified inhibitors of cysteine protease cathepsin L. Identified covalent inhibitors (including 53) had been synthesized and tested in cathepsin L assays using commercially available fluorescent substrates for cathepsins (Calbiochem).

Sequence of cysteine protease cathepsin L (P07711 114-333): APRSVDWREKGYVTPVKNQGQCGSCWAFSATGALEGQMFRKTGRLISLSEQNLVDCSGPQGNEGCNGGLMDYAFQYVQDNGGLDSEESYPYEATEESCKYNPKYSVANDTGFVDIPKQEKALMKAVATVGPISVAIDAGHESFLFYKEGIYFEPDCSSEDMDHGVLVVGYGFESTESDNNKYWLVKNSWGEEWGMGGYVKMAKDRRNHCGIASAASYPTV

Row | SMILES | Known inhibitors of papain, kinact/Ki (cysteine protease papain [1]) [M⁻¹ s⁻¹] | kinact/KI (cysteine protease papain [2]) [M⁻¹ s⁻¹] | further results
1 | COC(=O)/C=C/CNC(=O)[C@@H](CNC(C)=O)Cc1ccccc1 | 6.575 |  | 
2 | COC(=O)/C=C/CNC(=O)c1cc(-c2ccc(C)cc2)on1 |  | 1.23 | 
3 | COC(=O)/C=C/CNC(=O)[C@H](CNC(C)=O)Cc1ccccc1 | 0.386 |  | 
4 | COC(=O)/C=C/CNC(=O)c1sc(-c2ccccc2F)nc1C |  | 0.409 | 
5 | COC(=O)/C=C/CNC(=O)[C@@H](CNC(C)=O)CC(C)C | 1.102 |  | 
6 | COC(=O)/C=C/CNC(=O)C1CCN(C(=O)CC(C)C)CC1 |  | 0.461 | 
7 | COC(=O)/C=C/CNC(=O)c1ccc(C2CCCO2)s1 (stereo not shown) |  | 0.037 | 
8 | CC(Oc1ccc(Br)cc1Br)C(=O)NC/C=C/S(C)(=O)=O (racemic) [Compound 53] |  |  | inhibition of Cathepsin B [3]: does not inhibit; kinact/KI ([4]; detailed kinetic analysis): 4.1 M⁻¹ s⁻¹; Ki ([4]; fluorescent substrates (Calbiochem)): 134 ± 2 µM
